Assay results published in US20030134342A1, “Binding-specific peptides, binding-specific carrier molecules, and uses thereof” (priority 2001, published 2003).

Columns and labels:
CML cells = experiment: ELISA binding of phage displaying peptides to fixed cells: CML cells; parameters: species or system human; conditions: in words
Procedure: (§1) Preliminary experiments were performed to identify specific peptides by using cells from patients diagnosed with CLL, CML, and AML. The screening was performed by incubating the cells with the phage-peptides from the library. This incubation allows interaction between the peptide and the cell. The binding step was followed by several washes to eliminate free phage. Phage bound on the cell surface was eluted.
(§2) After the last round of binding with one cell type, the eluted phage was plated on an agar plate with the appropriate selection antibiotics. Each individual colony, corresponding to one individual peptide sequence, was amplified in a 96-well plate. After purification, these peptides were tested for their ability to bind to the cells in a microtiter plate by ELISA.
(§3) Each peptide was dispensed in a 96-well plate, containing cells previously fixed. Each colony was tested in a triplicate assay with the appropriate controls. After incubation of cells with an individual clone, the wells were washed to eliminate free phage. The bound phages were detected by using a monoclonal anti-M13 antibody/horseradish peroxidase (HRP) conjugate. After addition of the HRP substrate, the intensity of the coloration was measured by spectrophotometry. The light absorbance values (optical density values, O.D. values) are proportional to the number of phage bound to the cells.
(§4) The binding to various cell types were examined to evaluate the cellular specificity of the phage clones. For example, the clones from phage eluted from CLL patient cells were assayed for their ability to bind cells from an AML patient. Cells from normal donors (non-leukemic) were also evaluated to ascertain leukemia cell specificity.
(§5) Peripheral blood and bone marrow samples were collected from patients after informed consent. The samples were collected in tubes containing sodium citrate. Mononuclear cells were isolated by Ficoll-Hypaque density gradient separation and collection of the cells at a density of 1.077 g/mL.
(§6) The wells of a 96-well plate were pre-treated with 100 μL of poly-L-lysine (0.01 mg/mL in phosphate-buffered saline, 120 mM NaCl, 2.7 mM KCl, 10 mM phosphate buffer, “PBS”) for 2-16 hours at room temperature. After draining the poly-L-lysine from the wells, the excess poly-L-lysine was removed from the wells by flicking. The cells were washed with PBS, then suspended in PBS and diluted to a final concentration of […]. The cell suspension (200 μL; 250,000 cells) were added to each well needed for the assay.
(§7) The plates were centrifuged at 500 g for about 5 minutes in a microplate carrying centrifuge when available. The cells were fixed to the wells through the addition of glutaraldehyde (100 μL of 0.5%) and incubating at room temperature for about an hour. The glutaraldehyde was removed and the cell-coated wells washed once with PBS. Alternatively, the cells were permitted to settle to the well bottoms for about 4 hours at 37° C., and the glutaraldehyde fixative was added after removing the PBS.
(§8) A glycine solution (200 μl of 0.1 M glycine in PBS) containing bovine serum albumin (BSA; 1%) was added to the wells and permitted to incubate for 30 minutes to block excess glutaraldehyde. The glycine was removed, and the cell-coated wells washed once with PBS. A sodium pyrophosphate solution (200 μL of 0.3 mg/mL NaPPi) was added to the wells and incubated for an hour at room temperature to neutralize lysine charges. The pyrophosphate solution was removed and the wells washed once with PBS. Multiwell microtiter plates with cell-coated wells were stored at 4° C. with fresh PBS solution in the coated wells.
(§9) The cells to be studied for binding were suspended in PBS and adsorbed onto to a poly-L-lysine pretreated 96-well plate and kept at 4° C. The PBS was removed from the wells and an H2O2 solution in PBS (6% H2O2 in 200 μL/well) was added. […]

AML cells = experiment: ELISA binding of phage displaying peptides to fixed cells: AML cells; parameters: species or system human; conditions: in words
Procedure: as §1, §2, §3, §4, §5, §6, §7, §8, §9

CD34+ cells = experiment: ELISA binding of phage displaying peptides to fixed cells: CD34+ cells; parameters: species or system human; conditions: in words
Procedure: as §1, §2
(§10) Each peptide was dispensed in a 96-well plate, containing cells previously fixed. […] The bound phages were detected by using a monoclonal anti-M13 antibody/horseradish peroxidase (HRP) conjugate. After addition of the HRP substrate, the intensity of the coloration was measured by spectrophotometry. The light absorbance values (optical density values, O.D. values) are proportional to the number of phage bound to the cells.
(§11) The binding to various cell types were examined to evaluate the cellular specificity of the phage clones. […] Cells from normal donors (non-leukemic) were also evaluated to ascertain leukemia cell specificity. […]

CLL cells = experiment: ELISA binding of phage displaying peptides to fixed cells: CLL cells; parameters: species or system human; conditions: in words
Procedure: as §1, §2, §3, §4, §5, §6, §7, §8, §9

AML bone marrow cells = experiment: Methylcellulose culture of AML bone marrow cells with peptides: proliferation (colonies) and differentiation (morphology); assay type: cell-based, human; conditions: patient numbers
Procedure: The effect of various peptides were analyzed for their biological activity on cells from a patient with acute myelogenous leukemia. The AML cells were cultured into a semi-solid medium of methylcellulose in order to determine the cloning efficiency and the differentiation of the cells. The various peptides were introduced into the semi-solid cell culture at a concentration of 10^−4 M (0.1 mM) peptide. After 14 days continuous incubation of the cell cultures, the morphology of the cells were analyzed. The data are shown in FIG. 7 for the cultures and show the percentage of immature cells in the culture (solid black), the percentage of small myeloblasts (solid white), the percentage of young cells (dark gray), and the relative percentage of monocytes to […] (light gray). The data regarding the biological response of AML bone marrow cells in the presence of the various peptides is shown in the table below.

normal bone marrow cells = experiment: ELISA binding of phage displaying peptides to fixed cells: normal bone marrow; parameters: species or system human; conditions: in words
Procedure: as §1, §2, §10, §11

cord blood cells = experiment: ELISA binding of phage displaying peptides to fixed cells: cord blood cells; parameters: species or system human; conditions: in words
Procedure: as §1, §2, §10, §11

## CIEETARKGC [A2 11-24]
CML cells
  binding of phage displaying the peptide to CML cells: bind
AML cells
  binding of phage displaying the peptide to AML cells: bind
CD34+ cells
  binding of phage displaying the peptide to CD34+ cells: bind
CLL cells
  binding of phage displaying the peptide to CLL cells: not
AML bone marrow cells
  Activation of Differentiation: 3

## KRGIHPES [B3 9-1-01 no Cys]
AML cells
  binding of phage displaying the peptide to AML cells: not
Normal bone marrow cells
  binding of phage displaying the peptide to normal bone marrow: bind

## VSEDIYDA [E11 12-8B]
CML cells
  binding of phage displaying the peptide to CML cells: bind
AML cells
  binding of phage displaying the peptide to AML cells: bind
Cord blood cells
  binding of phage displaying the peptide to cord blood cells: bind
